# Source: patent publication US12240816B2, “Deuterated compounds and uses thereof” (Aldeyra Therapeutics, Inc., priority 2015, dated 2025)
# “And” between values parts separate entries of the source, which are not always exact repeats. Equal entries are not always repeated. “Also recorded” adds a separate entry of the source. Where two headings read alike, the source gives them in different places. Marks after values point to notes of the source that are not given here.
# Key:
# [1] = target: MAO-A (Rattus norvegicus, UniProt P21396); test: MAO-A (antagonist radioligand) binding assay; settings: 1.0E−05M
# [2] = target: T1, PR (h) (Homo sapiens, UniProt P06401); test: PR (h) (agonist radioligand) binding assay; settings: 1.0E−05M
# T1 construct: T47D cells (cytosol)
# T1 sequence (P06401 679-933): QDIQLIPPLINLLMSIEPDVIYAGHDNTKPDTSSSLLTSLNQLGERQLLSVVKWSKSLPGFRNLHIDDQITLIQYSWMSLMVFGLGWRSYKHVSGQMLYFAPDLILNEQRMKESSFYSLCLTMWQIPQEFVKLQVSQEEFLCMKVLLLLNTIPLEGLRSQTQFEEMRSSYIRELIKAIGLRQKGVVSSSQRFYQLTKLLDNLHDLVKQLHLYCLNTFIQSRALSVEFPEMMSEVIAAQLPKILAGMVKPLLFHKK
# [3] = test system: rat hippocampal cultures; test: Propidium iodide cell death assay, protection from hydrogen peroxide toxicity; format: cell-based
# [4] = test system: dog hepatocytes
# [5] = test system: rat hippocampal cultures; test: cells; format: cell-based
# [6] = read-out: % Inhibition of Control Specific Binding 1st
# [7] = read-out: % Inhibition of Control Specific Binding 2nd
# [8] = read-out: % Inhibition of Control Specific Binding Mean
# [9] = NS2 (CoreRx micro-milled, Captisol) 0.1 μM + 10 μM hydrogen peroxide, 5 h
# [10] = NS2 (CoreRx micro-milled, Captisol) 1 μM + 10 μM hydrogen peroxide, 5 h
# [11] = NS2 (CoreRx micro-milled, Captisol) 10 μM + 10 μM hydrogen peroxide, 5 h
# [12] = NS2 (CoreRx micro-milled, Captisol) 100 μM + 10 μM hydrogen peroxide, 5 h
# [13] = NS2 (CoreRx micro-milled, Captisol) 1 mM + 10 μM hydrogen peroxide, 5 h
# [14] = NS2 (CoreRx micro-milled, DMSO) 0.1 μM + 10 μM hydrogen peroxide, 5 h
# [15] = NS2 (CoreRx micro-milled, DMSO) 1 μM + 10 μM hydrogen peroxide, 5 h
# [16] = NS2 (CoreRx micro-milled, DMSO) 10 μM + 10 μM hydrogen peroxide, 5 h
# [17] = NS2 (CoreRx micro-milled, DMSO) 100 μM + 10 μM hydrogen peroxide, 5 h
# [18] = NS2 (CoreRx micro-milled, DMSO) 1 mM + 10 μM hydrogen peroxide, 5 h
# [19] = NS2 (J-Star non-milled, Captisol) 0.1 μM + 10 μM hydrogen peroxide, 5 h
# [20] = NS2 (J-Star non-milled, Captisol) 1 μM + 10 μM hydrogen peroxide, 5 h
# [21] = NS2 (J-Star non-milled, Captisol) 10 μM + 10 μM hydrogen peroxide, 5 h
# [22] = NS2 (J-Star non-milled, Captisol) 100 μM + 10 μM hydrogen peroxide, 5 h
# [23] = NS2 (J-Star non-milled, Captisol) 1 mM + 10 μM hydrogen peroxide, 5 h
# [24] = NS2 (J-Star non-milled, DMSO) 0.1 μM + 10 μM hydrogen peroxide, 5 h
# [25] = NS2 (J-Star non-milled, DMSO) 1 μM + 10 μM hydrogen peroxide, 5 h
# [26] = NS2 (J-Star non-milled, DMSO) 10 μM + 10 μM hydrogen peroxide, 5 h
# [27] = NS2 (J-Star non-milled, DMSO) 100 μM + 10 μM hydrogen peroxide, 5 h
# [28] = NS2 (J-Star non-milled, DMSO) 1 mM + 10 μM hydrogen peroxide, 5 h
# [29] = PI, Captisol formulation, 10 μM hydrogen peroxide, 5 h
# [30] = PI, DMSO formulation, 10 μM hydrogen peroxide, 5 h
# [31] = CFDA, Captisol formulation, 10 μM hydrogen peroxide, 5 h
# [32] = CFDA, DMSO formulation, 10 μM hydrogen peroxide, 5 h
# MAO-A, sequence (P21396 whole entry): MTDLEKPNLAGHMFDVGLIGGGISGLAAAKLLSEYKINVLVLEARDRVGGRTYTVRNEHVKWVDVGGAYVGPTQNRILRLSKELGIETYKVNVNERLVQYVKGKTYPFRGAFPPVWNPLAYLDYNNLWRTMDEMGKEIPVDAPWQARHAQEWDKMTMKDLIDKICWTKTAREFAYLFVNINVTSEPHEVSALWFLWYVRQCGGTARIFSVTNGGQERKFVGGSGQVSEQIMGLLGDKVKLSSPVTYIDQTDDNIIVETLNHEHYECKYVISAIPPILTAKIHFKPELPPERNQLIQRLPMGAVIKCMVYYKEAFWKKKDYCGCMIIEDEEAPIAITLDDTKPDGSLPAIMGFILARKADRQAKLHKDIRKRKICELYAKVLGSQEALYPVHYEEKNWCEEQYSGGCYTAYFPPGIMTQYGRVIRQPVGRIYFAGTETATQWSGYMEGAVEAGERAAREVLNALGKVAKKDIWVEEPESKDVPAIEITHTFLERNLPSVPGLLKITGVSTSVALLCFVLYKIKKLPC
structure (smiles),measurement,setting,value
[2H]C([2H])([2H])C(O)(c1nc2ccc(Cl)cc2cc1N)C([2H])([2H])[2H] [Compound I-1],inhibition at 10 µM,[1]; [6],66.4%
same,inhibition at 10 µM,[1]; [7],70.7%
same,inhibition at 10 µM,[1]; [8],68.5%
same,inhibition at 10 µM,[2]; [6],58.7%
same,inhibition at 10 µM,[2]; [7],63.1%
same,inhibition at 10 µM,[2]; [8],60.9%
"CC(C)(O)c1nc2ccc(Cl)cc2cc1N [NS2, 2-(3-amino-6-chloroquinolin-2-yl)propan-2-ol]",% of Control (PI),[3]; [9],167 ± 10%
same,"PI signal, Mean",[3]; [9],261
same,"PI signal, replicate wells",[3]; [9],246 (4×) and 323
same,% of Control (PI),[3]; [10],171 ± 9%
same,"PI signal, Mean",[3]; [10],266
same,"PI signal, replicate wells",[3]; [10],246 (2×) and 267 and 319 and 254
same,% of Control (PI),[3]; [11],108 ± 20%
same,"PI signal, Mean",[3]; [11],169*
same,"PI signal, replicate wells",[3]; [11],180 (3×) and 57 and 246
same,% of Control (PI),[3]; [12],115 ± 13%
same,"PI signal, Mean",[3]; [12],180*
same,"PI signal, replicate wells",[3]; [12],246 and 137 and 144 and 180 and 192
same,% of Control (PI),[3]; [13],130 ± 8%
same,"PI signal, Mean",[3]; [13],203*
same,"PI signal, replicate wells",[3]; [13],188 and 217 and 246 and 184 and 180
same,% of Control (PI),[3]; [14],189 ± 9%
same,"PI signal, Mean",[3]; [14],267
same,"PI signal, replicate wells",[3]; [14],315 and 259 and 246 and 263 and 254
same,% of Control (PI),[3]; [15],190 ± 9%
same,"PI signal, Mean",[3]; [15],268
same,"PI signal, replicate wells",[3]; [15],254 (3×) and 315 and 263
same,% of Control (PI),[3]; [16],115 ± 11%
same,"PI signal, Mean",[3]; [16],163*
same,"PI signal, replicate wells",[3]; [16],117 and 137 and 180 and 188 and 192
same,% of Control (PI),[3]; [17],113 ± 11%
same,"PI signal, Mean",[3]; [17],159*
same,"PI signal, replicate wells",[3]; [17],192 and 117 and 125 and 180 (2×)
same,% of Control (PI),[3]; [18],138 ± 6%
same,"PI signal, Mean",[3]; [18],195*
same,"PI signal, replicate wells",[3]; [18],188 and 180 (2×) and 204 and 221
same,% of Control (PI),[3]; [19],165 ± 22%
same,"PI signal, Mean",[3]; [19],232
same,"PI signal, replicate wells",[3]; [19],350 and 180 (2×) and 204 and 246
same,% of Control (PI),[3]; [20],172 ± 24%
same,"PI signal, Mean",[3]; [20],242
same,"PI signal, replicate wells",[3]; [20],180 and 192 and 184 and 315 and 337
same,% of Control (PI),[3]; [21],113 ± 12%
same,"PI signal, Mean",[3]; [21],160*
same,"PI signal, replicate wells",[3]; [21],180 and 188 and 117 (2×) and 196
same,% of Control (PI),[3]; [22],99 ± 7%
same,"PI signal, Mean",[3]; [22],139*
same,"PI signal, replicate wells",[3]; [22],180 and 133 and 129 (2×) and 125
same,% of Control (PI),[3]; [23],120 ± 6%
same,"PI signal, Mean",[3]; [23],169*
same,"PI signal, replicate wells",[3]; [23],180 (3×) and 133 and 172
same,% of Control (PI),[3]; [24],175 ± 17%
same,"PI signal, Mean",[3]; [24],275
same,"PI signal, replicate wells",[3]; [24],350 and 259 and 246 and 315 and 204
same,% of Control (PI),[3]; [25],143 ± 9%
same,"PI signal, Mean",[3]; [25],225
same,"PI signal, replicate wells",[3]; [25],188 and 250 and 246 (2×) and 196
same,% of Control (PI),[3]; [26],115 ± 2%
same,"PI signal, Mean",[3]; [26],181*
same,"PI signal, replicate wells",[3]; [26],180 (3×) and 192 and 172
same,% of Control (PI),[3]; [27],111 ± 18%
same,"PI signal, Mean",[3]; [27],175*
same,"PI signal, replicate wells",[3]; [27],246 (2×) and 133 and 125 (2×)
same,% of Control (PI),[3]; [28],113 ± 15%
same,"PI signal, Mean",[3]; [28],177*
same,"PI signal, replicate wells",[3]; [28],117 and 250 and 180 and 204 and 133
same,Full Efficacy Concentration,[3]; [29],10 µM
same,No effect Concentration,[3]; [29],1 µM
same,EC50,"[3]; PI, Captisol formulation, 10 μM hydrogen peroxide, 5 h, values with * are estimates, listed as NS2 (J-Star), read-out: EC50 ± SE",2800 nM
same,Full Efficacy Concentration,[3]; [30],10 µM
same,No effect Concentration,[3]; [30],1 µM
same,EC50,"[3]; PI, DMSO formulation, 10 μM hydrogen peroxide, 5 h, values with * are estimates, listed as NS2 (J-Star), read-out: EC50 ± SE",1100 nM
same,Full protection concentration,"[3]; PI, both NS2 formulations and both batches",10 µM
same,no effect concentration,"[3]; PI, both formulations and batches",1 µM
same,EC50,"[3]; Rattus norvegicus, 5 h, PI, DMSO formulation, 10 μM hydrogen peroxide, 5 h, values with * are estimates, read-out: EC50 ± SE",1300 nM
same,EC50,"[3]; Rattus norvegicus, PI, across formulations and batches, read-out: EC50 range",1100 to 2800 nM
same,EC50,"[3]; Rattus norvegicus, PI, best available estimate, read-out: EC50, mean value for all PI data",2000 ± 1000 nM
same,metabolite profile,"[4]; NS2, 120 min, dog hepatocytes","metabolized to M1, M2, M5, and M6, with some unchanged NS2 remaining; also recorded: two different mono-oxidation products (M1 and M2) and two different glutathione (GSH) conjugates (M5 and M6)"
same,Peak Areas Dog,"[4]; dog, 120 min, 3 μM",4.79E+07
same,Full Efficacy Concentration,[5]; [31],100 µM
same,No effect Concentration,[5]; [31],1 µM
same,EC50,"[5]; CFDA, Captisol formulation, 10 μM hydrogen peroxide, 5 h, listed as CoreRx NS2 (milled), read-out: EC50 ± SE",7000 ± 4000 nM
same,EC50,"[5]; CFDA, Captisol formulation, 10 μM hydrogen peroxide, 5 h, listed as NS2 (J-Star), read-out: EC50 ± SE",9100 nM
same,Full Efficacy Concentration,[5]; [32],100 µM
same,No effect Concentration,[5]; [32],1 µM
same,EC50,"[5]; CFDA, DMSO formulation, 10 μM hydrogen peroxide, 5 h, values with * are estimates, listed as NS2 (CoreRx), read-out: EC50 ± SE",9800 nM
same,EC50,"[5]; CFDA, DMSO formulation, 10 μM hydrogen peroxide, 5 h, values with * are estimates, listed as NS2 (J-Star), read-out: EC50 ± SE",2600 nM
same,Full protection concentration,"[5]; CFDA, both NS2 formulations and both batches",100 µM
same,no effect concentration,"[5]; CFDA, both formulations and batches",1 µM
same,% of Control (CFDA),[5]; [9],58 ± 4%
same,"CFDA signal, Mean",[5]; [9],26931
same,% of Control (CFDA),[5]; [10],64 ± 6%
same,"CFDA signal, Mean",[5]; [10],29693
same,% of Control (CFDA),[5]; [11],80 ± 8%
same,"CFDA signal, Mean",[5]; [11],37577*
same,% of Control (CFDA),[5]; [12],100 ± 6%
same,"CFDA signal, Mean",[5]; [12],46508*
same,% of Control (CFDA),[5]; [13],92 ± 07%
same,"CFDA signal, Mean",[5]; [13],42889*
same,% of Control (CFDA),[5]; [14],61 ± 2%
same,"CFDA signal, Mean",[5]; [14],26314
same,% of Control (CFDA),[5]; [15],62 ± 6%
same,"CFDA signal, Mean",[5]; [15],26633
same,% of Control (CFDA),[5]; [16],79 ± 3%
same,"CFDA signal, Mean",[5]; [16],34180*
same,"CFDA signal, replicate wells",[5]; [16],32661 (3×) and 34496 and 38422
same,% of Control (CFDA),[5]; [17],101 ± 6%
same,"CFDA signal, Mean",[5]; [17],43328*
same,% of Control (CFDA),[5]; [18],90 ± 3%
same,"CFDA signal, Mean",[5]; [18],38622*
same,% of Control (CFDA),[5]; [19],60 ± 4%
same,"CFDA signal, Mean",[5]; [19],24142
same,% of Control (CFDA),[5]; [20],61 ± 3%
same,"CFDA signal, Mean",[5]; [20],24338
same,% of Control (CFDA),[5]; [21],79± 6%
same,"CFDA signal, Mean",[5]; [21],31811*
same,% of Control (CFDA),[5]; [22],93 ± 9%
same,"CFDA signal, Mean",[5]; [22],37544*
same,% of Control (CFDA),[5]; [23],98 ± 3%
same,"CFDA signal, Mean",[5]; [23],39516*
same,% of Control (CFDA),[5]; [24],60 ± 4%
same,"CFDA signal, Mean",[5]; [24],24819
same,% of Control (CFDA),[5]; [25],66 ± 6%
same,"CFDA signal, Mean",[5]; [25],27524
same,% of Control (CFDA),[5]; [26],85 ± 7%
same,"CFDA signal, Mean",[5]; [26],35341*
same,% of Control (CFDA),[5]; [27],96 ± 10%
same,"CFDA signal, Mean",[5]; [27],39844*
same,% of Control (CFDA),[5]; [28],88 ± 10%
same,"CFDA signal, Mean",[5]; [28],36632*
same,EC50,"[5]; Rattus norvegicus, 5 h, CFDA, Captisol formulation, 10 μM hydrogen peroxide, 5 h, read-out: EC50 ± SE",6800 nM
same,EC50,"[5]; Rattus norvegicus, CFDA, across formulations and batches, read-out: EC50 range",3000 to 10000 nM
